Assay results published in ChEMBL document CHEMBL1149520, “Cyclopentane-based human NK1 antagonists. Part 1: discovery and initial SAR” (Bioorg Med Chem Lett, 2006).
≈ marks a conversion by molar mass, not a printed value.

Columns and labels:
physchem = conditions: sodium acetate/acetic acid buffer, pH 5
Substance-P receptor = Substance-P receptor (Homo sapiens, UniProt P25103); assay: biochemical
[1] = Solubility in potassium hydrogen phosphate buffer at pH 5; assay type: physicochemical
[2] = Dissociation constant, pKa of the compound; assay type: physicochemical
Cavia porcellus = species on record: Cavia porcellus; assay: animal or person; conditions: Plasma, po, read-out: Inhibition
[3] = Bioavailability in orally dosed dog; assay type: ADME, organism-based, Canis lupus familiaris; conditions: in vivo, po
[4] = Bioavailability in orally dosed rat; assay type: ADME, organism-based; conditions: in vivo, po

Substance-P receptor, sequence (P25103 whole entry): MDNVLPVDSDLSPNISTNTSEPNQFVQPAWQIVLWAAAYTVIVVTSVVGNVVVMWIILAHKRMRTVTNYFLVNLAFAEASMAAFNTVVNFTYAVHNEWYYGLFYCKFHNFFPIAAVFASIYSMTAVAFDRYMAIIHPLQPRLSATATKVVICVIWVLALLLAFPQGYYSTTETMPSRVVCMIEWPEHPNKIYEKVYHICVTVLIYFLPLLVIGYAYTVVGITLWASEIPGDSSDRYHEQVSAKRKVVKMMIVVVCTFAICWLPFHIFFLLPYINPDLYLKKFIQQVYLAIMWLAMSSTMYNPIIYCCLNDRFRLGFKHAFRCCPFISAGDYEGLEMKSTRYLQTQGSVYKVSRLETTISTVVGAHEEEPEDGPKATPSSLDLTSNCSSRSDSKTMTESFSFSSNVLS

Structure (SMILES) | IC50 (Substance-P receptor) [nM] | other results
CN(C[C@@H]1CCC(=O)N1)[C@@H]1CC[C@H](OCc2cc(C(F)(F)F)cc(C(F)(F)F)c2)[C@H]1c1ccccc1 | 0.81 | solubility (physchem): 510 µg/mL (≈ 991 µM)
O=c1[nH]nc(CN2CCO[C@H](OCc3cc(C(F)(F)F)cc(C(F)(F)F)c3)[C@@H]2c2ccccc2)[nH]1 | – | solubility [1]: 3 µg/mL (≈ 5.97 µM); pKa [2]: < 3.5
CNC[C@@H]1CC[C@H](OCc2cc(C(F)(F)F)cc(C(F)(F)F)c2)[C@H]1c1ccccc1 (racemic) | 1.9 | –
CN(Cc1nnc[nH]1)[C@@H]1CC[C@H](OCc2cc(C(F)(F)F)cc(C(F)(F)F)c2)[C@H]1c1ccccc1 (racemic) | 1.1 | –
NC[C@@H]1CC[C@H](OCc2cc(C(F)(F)F)cc(C(F)(F)F)c2)[C@H]1c1ccccc1 (racemic) | 2.7 | –
FC(F)(F)c1cc(CO[C@H]2CC[C@@H](CN3CCOCC3)[C@@H]2c2ccccc2)cc(C(F)(F)F)c1 (racemic) | 8.2 | –
COC(=O)N[C@@H]1CC[C@H](OCc2cc(C(F)(F)F)cc(C(F)(F)F)c2)[C@H]1c1ccccc1 (racemic) | 0.89 | inhibition in vivo at 1 mg/kg (Cavia porcellus): < 25%
CNC(=O)N[C@@H]1CC[C@H](OCc2cc(C(F)(F)F)cc(C(F)(F)F)c2)[C@H]1c1ccccc1 (racemic) | 2.7 | –
NC(=O)[C@@H]1CC[C@H](OCc2cc(C(F)(F)F)cc(C(F)(F)F)c2)[C@H]1c1ccccc1 (racemic) | 7.2 | –
OC[C@@H]1CC[C@H](OCc2cc(C(F)(F)F)cc(C(F)(F)F)c2)[C@H]1c1ccccc1 (racemic) | 0.77 | –
NC(=O)CN[C@H]1CC[C@H](OCc2cc(C(F)(F)F)cc(C(F)(F)F)c2)[C@@H]1c1ccccc1 (racemic) | 8.3 | solubility (physchem): 800 µg/mL (≈ 1740 µM)
FC(F)(F)c1cc(CO[C@H]2CC[C@@H](CN3CCCCC3)[C@@H]2c2ccccc2)cc(C(F)(F)F)c1 (racemic) | 5 | –
O=c1[nH]cc(CN[C@@H]2CC[C@H](OCc3cc(C(F)(F)F)cc(C(F)(F)F)c3)[C@H]2c2ccccc2)[nH]1 (racemic) | 5.2 | –
CN(CC[C@@H]1CC[C@H](OCc2cc(C(F)(F)F)cc(C(F)(F)F)c2)[C@H]1c1ccccc1)Cc1n[nH]c(=O)[nH]1 (racemic) | 4.9 | solubility (physchem): 10 µg/mL (≈ 18.4 µM)
CN(Cc1n[nH]c(=O)[nH]1)C[C@H]1CC[C@H](OCc2cc(C(F)(F)F)cc(C(F)(F)F)c2)[C@@H]1c1ccccc1 (racemic) | 4.7 | solubility (physchem): 80 µg/mL (≈ 151 µM)
O=C(O)[C@@H]1CC[C@H](OCc2cc(C(F)(F)F)cc(C(F)(F)F)c2)[C@H]1c1ccccc1 (racemic) | 67 | –
CN(CC(N)=O)[C@@H]1CC[C@H](OCc2cc(C(F)(F)F)cc(C(F)(F)F)c2)[C@H]1c1ccccc1 (racemic) | 2.7 | solubility (physchem): 16 µg/mL (≈ 33.7 µM); pKa [2]: 5.8
N[C@H]1CC[C@H](OCc2cc(C(F)(F)F)cc(C(F)(F)F)c2)[C@@H]1c1ccccc1 (racemic) | 7.9 | –
CN(C)C(=O)N(C)[C@@H]1CC[C@H](OCc2cc(C(F)(F)F)cc(C(F)(F)F)c2)[C@H]1c1ccccc1 (racemic) | 16 | –
NC(=O)N[C@@H]1CC[C@H](OCc2cc(C(F)(F)F)cc(C(F)(F)F)c2)[C@H]1c1ccccc1 (racemic) | 3.5 | –
CN[C@H]1CC[C@H](OCc2cc(C(F)(F)F)cc(C(F)(F)F)c2)[C@@H]1c1ccccc1 (racemic) | 7.2 | –
NC(=O)CN[C@H]1CC[C@@H](OCc2cc(C(F)(F)F)cc(C(F)(F)F)c2)[C@@H]1c1ccccc1 (relative stereo) | 45 | –
N[C@H]1CC[C@@H](OCc2cc(C(F)(F)F)cc(C(F)(F)F)c2)[C@@H]1c1ccccc1 (relative stereo) | 100 | –
N[C@@H]1CC[C@H](OCc2cc(C(F)(F)F)cc(C(F)(F)F)c2)[C@H]1c1ccccc1 (relative stereo) | 2.3 | –
C[C@@H](O[C@H]1OCCN(Cc2n[nH]c(=O)[nH]2)[C@H]1c1ccc(F)cc1)c1cc(C(F)(F)F)cc(C(F)(F)F)c1 [APREPITANT] | – | bioavailability [3]: 40%; solubility [1]: < 0.5 µg/mL; bioavailability [4]: 53%; pKa [2]: < 3.5

Continued, in another order:

IC50 (Substance-P receptor) [nM] | Structure (SMILES) | other results
260 | O=C1CC[C@@H](CN[C@H]2CC[C@@H](OCc3cc(C(F)(F)F)cc(C(F)(F)F)c3)[C@@H]2c2ccccc2)N1 | –
1.5 | O=C1CC[C@@H](CN[C@@H]2CC[C@H](OCc3cc(C(F)(F)F)cc(C(F)(F)F)c3)[C@H]2c2ccccc2)N1 | solubility (physchem): 4000 µg/mL (≈ 7990 µM)
2 | CN(Cc1n[nH]c(=O)[nH]1)C[C@@H]1CC[C@H](OCc2cc(C(F)(F)F)cc(C(F)(F)F)c2)[C@H]1c1ccccc1 (racemic) | solubility (physchem): 200 µg/mL (≈ 378 µM)
5.3 | COC(=O)N[C@H]1CC[C@H](OCc2cc(C(F)(F)F)cc(C(F)(F)F)c2)[C@@H]1c1ccccc1 (racemic) | –
1.9 | NC(=O)CNC[C@@H]1CC[C@H](OCc2cc(C(F)(F)F)cc(C(F)(F)F)c2)[C@H]1c1ccccc1 (racemic) | solubility (physchem): 590 µg/mL (≈ 1240 µM)
300 | O=C(N[C@H]1CC[C@H](OCc2cc(C(F)(F)F)cc(C(F)(F)F)c2)[C@@H]1c1ccccc1)OCc1ccccc1 (racemic) | –
1.3 | NC(=O)CN[C@@H]1CC[C@H](OCc2cc(C(F)(F)F)cc(C(F)(F)F)c2)[C@H]1c1ccccc1 (racemic) | solubility (physchem): 1100 µg/mL (≈ 2390 µM); pKa [2]: 6.6; inhibition in vivo at 1 mg/kg (Cavia porcellus): 60%
1.9 | CN(CC(N)=O)C[C@@H]1CC[C@H](OCc2cc(C(F)(F)F)cc(C(F)(F)F)c2)[C@H]1c1ccccc1 (racemic) | solubility (physchem): 300 µg/mL (≈ 614 µM)
6.2 | COC(=O)N(C)[C@@H]1CC[C@H](OCc2cc(C(F)(F)F)cc(C(F)(F)F)c2)[C@H]1c1ccccc1 (racemic) | –
5 | CN(C)C(=O)N[C@@H]1CC[C@H](OCc2cc(C(F)(F)F)cc(C(F)(F)F)c2)[C@H]1c1ccccc1 (racemic) | –
2.1 | CN(CC(N)=O)[C@H]1CC[C@H](OCc2cc(C(F)(F)F)cc(C(F)(F)F)c2)[C@@H]1c1ccccc1 (racemic) | –
9.8 | NC(=O)N[C@H]1CC[C@H](OCc2cc(C(F)(F)F)cc(C(F)(F)F)c2)[C@@H]1c1ccccc1 (racemic) | –
40 | O=C(N[C@@H]1CC[C@H](OCc2cc(C(F)(F)F)cc(C(F)(F)F)c2)[C@H]1c1ccccc1)OCc1ccccc1 (racemic) | –
0.83 | CN[C@@H]1CC[C@H](OCc2cc(C(F)(F)F)cc(C(F)(F)F)c2)[C@H]1c1ccccc1 (racemic) | –
5.7 | N[C@@H]1CC[C@H](OCc2cc(C(F)(F)F)cc(C(F)(F)F)c2)[C@H]1c1ccccc1 (racemic) | –
0.95 | NC(=O)CN[C@@H]1CC[C@H](OCc2cc(C(F)(F)F)cc(C(F)(F)F)c2)[C@H]1c1ccccc1 (relative stereo) | –
